Measured values published in the supplement of paper PMC5662764.
± gives the standard deviation of the averaged measurements.

Legend:
Test in all cases: normalised growth rate inhibition (GR value) relative to DMSO control (GR (1 = untreated growth, 0 = cytostasis, <0 = cytotoxic)); higher = less growth inhibition
Conditions in all cases: 72 h
HS578T = system: HS578T
Protocol: (§1)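 Breast cancer cell lines (BT-20, Hs 578T, MCF 10A, MCF7, MDA-MB-231, SK-BR-3) were plated in 384-well plates and treated 24 h later with drugs at six concentrations (0.04-10 µM). Viable cells were counted by Hoechst/dead-cell-stain imaging at 0 and 72 h. Counts were normalised to DMSO controls on the same plate to give the relative cell count and the growth-rate inhibition (GR) value; technical plate triplicates were averaged for each biological replicate.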

SKBR3 = system: SKBR3
Protocol: as §1

MCF10A = system: MCF10A
Protocol: as §1

BT20 = system: BT20
Protocol: as §1

MDAMB231 = system: MDAMB231
Protocol: as §1

MCF7 = system: MCF7
Protocol: as §1

Compound	normalised growth rate inhibition (HS578T; 0.04 µM)	normalised growth rate inhibition (HS578T; 0.12 µM)	normalised growth rate inhibition (HS578T; 0.37 µM)	normalised growth rate inhibition (HS578T; 1.11 µM)	normalised growth rate inhibition (HS578T; 3.33 µM)	normalised growth rate inhibition (HS578T; 10 µM)	normalised growth rate inhibition (SKBR3; 0.04 µM)	normalised growth rate inhibition (SKBR3; 0.12 µM)	normalised growth rate inhibition (SKBR3; 0.37 µM)	normalised growth rate inhibition (SKBR3; 1.11 µM)	normalised growth rate inhibition (SKBR3; 3.33 µM)	normalised growth rate inhibition (SKBR3; 10 µM)	normalised growth rate inhibition (MCF10A; 0.04 µM)	normalised growth rate inhibition (MCF10A; 0.12 µM)	normalised growth rate inhibition (MCF10A; 0.37 µM)	normalised growth rate inhibition (MCF10A; 1.11 µM)	normalised growth rate inhibition (MCF10A; 3.33 µM)	normalised growth rate inhibition (MCF10A; 10 µM)	normalised growth rate inhibition (BT20; 0.04 µM)	normalised growth rate inhibition (BT20; 0.12 µM)	normalised growth rate inhibition (BT20; 0.37 µM)	normalised growth rate inhibition (BT20; 1.11 µM)	normalised growth rate inhibition (BT20; 3.33 µM)	normalised growth rate inhibition (BT20; 10 µM)	normalised growth rate inhibition (MDAMB231; 0.04 µM)	normalised growth rate inhibition (MDAMB231; 0.12 µM)	normalised growth rate inhibition (MDAMB231; 0.37 µM)	normalised growth rate inhibition (MDAMB231; 1.11 µM)	normalised growth rate inhibition (MDAMB231; 3.33 µM)	normalised growth rate inhibition (MDAMB231; 10 µM)	normalised growth rate inhibition (MCF7; 0.04 µM)	normalised growth rate inhibition (MCF7; 0.12 µM)	normalised growth rate inhibition (MCF7; 0.37 µM)	normalised growth rate inhibition (MCF7; 1.11 µM)	normalised growth rate inhibition (MCF7; 3.33 µM)	normalised growth rate inhibition (MCF7; 10 µM)
CNC(=O)c1ccc(Nc2cc(Nc3ccccc3S(=O)(=O)C(C)C)c3cc[nH]c3n2)nc1 [HG-5-113-01]	0.9393 ± 0.0065	0.9 ± 0.013	0.77 ± 0.043	0.443 ± 0.17	0.109 ± 0.13	-0.0329 ± 0.066	0.875 ± 0.062	0.798 ± 0.16	0.514 ± 0.3	0.0629 ± 0.15	-0.121 ± 0.069	-0.148 ± 0.12	0.968 ± 0.013	0.92 ± 0.036	0.851 ± 0.034	0.713 ± 0.031	0.312 ± 0.16	-0.0419 ± 0.062	0.953 ± 0.041	0.8835 ± 0.0077	0.785 ± 0.069	0.601 ± 0.057	0.295 ± 0.051	-0.158 ± 0.11	0.969 ± 0.058	0.888 ± 0.068	0.705 ± 0.12	0.35 ± 0.19	0.123 ± 0.089	-0.0611 ± 0.15	0.866 ± 0.069	0.718 ± 0.18	0.399 ± 0.21	0.163 ± 0.11	0.064 ± 0.018	-0.222 ± 0.1
COc1cc(OC)cc(-c2ccc3ncc4ccc(=O)n(-c5ccc(N6CCNCC6)c(C(F)(F)F)c5)c4c3c2)c1 [JW-7-24-1]	0.929 ± 0.017	0.89 ± 0.039	0.765 ± 0.034	0.581 ± 0.029	0.384 ± 0.037	-0.198 ± 0.14	0.615 ± 0.034	0.695 ± 0.042	0.591 ± 0.047	0.457 ± 0.038	0.273 ± 0.041	-0.224 ± 0.14	0.986 ± 0.034	0.986 ± 0.044	0.952 ± 0.069	0.911 ± 0.11	0.84 ± 0.15	0.176 ± 0.17	0.797 ± 0.057	0.876 ± 0.078	0.822 ± 0.08	0.755 ± 0.18	0.61 ± 0.25	-0.0316 ± 0.17	0.823 ± 0.12	0.859 ± 0.088	0.754 ± 0.09	0.624 ± 0.12	0.543 ± 0.11	-0.122 ± 0.17	0.607 ± 0.09	0.551 ± 0.07	0.373 ± 0.12	0.236 ± 0.08	0.139 ± 0.078	-0.135 ± 0.0036
NC1(c2ccc(-c3nc4ccn5c(=O)[nH]nc5c4cc3-c3ccccc3)cc2)CCC1 [MK-2206]	0.8934 ± 0.0036	0.803 ± 0.035	0.577 ± 0.21	0.665 ± 0.064	0.638 ± 0.053	0.458 ± 0.29	0.761 ± 0.12	0.603 ± 0.084	0.484 ± 0.06	0.429 ± 0.048	0.283 ± 0.059	-0.0652 ± 0.015	0.99 ± 0.038	0.972 ± 0.036	0.705 ± 0.22	0.892 ± 0.067	0.833 ± 0.082	0.429 ± 0.09	0.974 ± 0.087	0.902 ± 0.12	0.678 ± 0.13	0.583 ± 0.17	0.453 ± 0.2	0.08 ± 0.29	0.968 ± 0.039	0.904 ± 0.039	0.821 ± 0.05	0.806 ± 0.061	0.757 ± 0.051	0.391 ± 0.35	0.616 ± 0.12	0.502 ± 0.086	0.278 ± 0.096	0.291 ± 0.12	0.176 ± 0.093	-0.104 ± 0.14
O=c1cc(N2CCOCC2)oc2c(-c3cccc4c3sc3ccccc34)cccc12 [NU-7441]	0.974 ± 0.01	0.9337 ± 0.0078	0.911 ± 0.022	0.789 ± 0.037	0.612 ± 0.02	0.144 ± 0.094	1.04 ± 0.036	0.957 ± 0.035	0.868 ± 0.061	0.714 ± 0.15	0.644 ± 0.082	0.199 ± 0.077	1.022 ± 0.0064	1.001 ± 0.0035	0.9817 ± 0.005	0.957 ± 0.015	0.894 ± 0.034	0.357 ± 0.3	1.06 ± 0.025	1.02 ± 0.044	0.998 ± 0.035	0.958 ± 0.049	0.853 ± 0.098	0.263 ± 0.17	1.02 ± 0.043	0.955 ± 0.046	0.892 ± 0.085	0.843 ± 0.075	0.579 ± 0.11	0.147 ± 0.16	1 ± 0.055	0.955 ± 0.024	0.937 ± 0.053	0.892 ± 0.1	0.747 ± 0.11	0.241 ± 0.28
Cn1c(=O)n(-c2ccc(C(C)(C)C#N)cc2)c2c3cc(-c4cnc5ccccc5c4)ccc3ncc21 [NVP-BEZ235]	0.261 ± 0.067	0.197 ± 0.078	0.109 ± 0.087	0.132 ± 0.11	0.115 ± 0.052	0.128 ± 0.044	0.0857 ± 0.065	0.0449 ± 0.11	-0.0406 ± 0.12	-0.04 ± 0.11	-0.035 ± 0.12	0.0305 ± 0.11	0.393 ± 0.24	0.269 ± 0.12	0.171 ± 0.038	0.164 ± 0.048	0.168 ± 0.052	0.202 ± 0.03	0.254 ± 0.1	0.13 ± 0.12	0.0662 ± 0.092	0.061 ± 0.042	0.055 ± 0.039	0.103 ± 0.053	0.397 ± 0.2	0.301 ± 0.19	0.196 ± 0.2	0.216 ± 0.15	0.223 ± 0.11	0.266 ± 0.095	0.166 ± 0.15	0.122 ± 0.16	0.0651 ± 0.16	0.0257 ± 0.12	0.034 ± 0.1	0.068 ± 0.071
COc1cc(N2CCC(N3CCN(C)CC3)CC2)ccc1Nc1ncc(Cl)c(Nc2ccccc2S(=O)(=O)C(C)C)n1 [NVP-TAE684]	0.885 ± 0.041	0.61 ± 0.098	0.609 ± 0.073	0.351 ± 0.11	0.111 ± 0.042	-0.201 ± 0.15	1.08 ± 0.047	0.782 ± 0.2	0.928 ± 0.069	0.691 ± 0.16	0.197 ± 0.2	-0.232 ± 0.068	0.889 ± 0.06	0.754 ± 0.19	0.647 ± 0.14	0.555 ± 0.12	0.429 ± 0.14	0.123 ± 0.1	1.04 ± 0.012	0.776 ± 0.2	0.972 ± 0.088	0.829 ± 0.13	0.447 ± 0.3	0.133 ± 0.28	0.908 ± 0.035	0.737 ± 0.11	0.694 ± 0.089	0.389 ± 0.14	0.117 ± 0.14	-0.228 ± 0.21	0.553 ± 0.22	0.133 ± 0.13	-0.0107 ± 0.12	-0.108 ± 0.053	-0.129 ± 0.021	-0.198 ± 0.18
Oc1cccc(-c2nc(N3CCOCC3)c3oc4ncccc4c3n2)c1 [PI-103]	0.676 ± 0.047	0.397 ± 0.075	0.249 ± 0.13	0.174 ± 0.16	0.148 ± 0.17	0.0951 ± 0.13	0.9 ± 0.045	0.579 ± 0.1	0.221 ± 0.052	-0.00817 ± 0.15	-0.0811 ± 0.2	-0.137 ± 0.17	0.96 ± 0.066	0.76 ± 0.22	0.427 ± 0.24	0.196 ± 0.067	0.125 ± 0.032	0.0826 ± 0.033	0.949 ± 0.084	0.723 ± 0.26	0.357 ± 0.32	0.0983 ± 0.17	-0.0552 ± 0.017	-0.115 ± 0.034	0.772 ± 0.075	0.637 ± 0.1	0.42 ± 0.25	0.371 ± 0.12	0.291 ± 0.18	0.0948 ± 0.18	0.71 ± 0.14	0.379 ± 0.16	0.0687 ± 0.081	-0.0473 ± 0.051	-0.0779 ± 0.063	-0.153 ± 0.1
